Assay results reported in article PMC4965013, “Open Source Drug Discovery with the Malaria Box Compound Collection for Neglected Diseases and Beyond” (PLoS Pathogens, 2016).
Like-named read-outs stand apart in the source and are kept apart here.

Key:
[1] = tested on: Saccharomyces cerevisiae strain WC081; assay: Yeast disc diffusion in combination with artemisinin; format: cell-based; conditions: 10 µL of 1 mM on disc, 0.2 µM artemisinin, read-out: larger zone size with artemisinin (SCG+artemisinin minus SCG)
Excerpt: Yeast screening for enhanced drug effects in combination with artemisinin, Jensen group (data presented first in this paper). […] Yeast (S. cerevisiae) was used as a proxy for P. falciparum, because the killing of S. cerevisiae and P. falciparum appear to have similarities. Saccharomyces cerevisiae strain WC081 (Mat a, leu2∆0, lys2∆0, ura3∆0, his3∆1, pdr1∆::HIS3, pdr3∆::kanMX4) was utilized and was originally derived from strain BY4742. Regulators of Multi-drug resistance transporters have been deleted from this strain to enhance the toxicity of compounds. Assay utilized the disc diffusion method with the observance of a clear zone indicating inhibition of growth. Synthetic complete medium containing 3% glycerol as a carbon source (SCG) was used in each assay. 10 µL of each compound at 1 mM was added to a paper disc which was placed on SCG and SCG^+artemisinin (0.2 µM) plates seeded with 10e6 yeast cells. Plates were incubated at 30 °C for 5 days and clear zones were measured. Compounds that produced a larger clear zone in the presence of artemisinin were considered to have an additive interaction with artemisinin. Results are reported as diameter of clear zone on SCG^+artemisinin plates - diameter of clear zone on SCG plates without artemisinin.

[2] = tested on: P. falciparum 3D7 trophozoites; assay: Metabolomic fingerprint profiling LC-MS; format: cell-based, Plasmodium falciparum; design: UDP-D-glucose / ADP-D-glucose: unit not given here
[3] = tested on: P. falciparum; assay: EC50 listed in S2 Table Metabolomics (used to set the concentration tested); format: cell-based; conditions: Plasmodium falciparum; EC50 used for Factor_XEC50 in metabolomics; read-out: EC50_nM
[4] = tested on: Atg8-Atg3; design: method as in ref [38] (a number printed in a supplementary file, which may have a reference list of its own: not looked up in the article's list); conditions: ref [38]; cited from earlier work
[5] = tested on: P. falciparum 3D7 or K1; assay: Asexual Blood Stage Imaging Assay (DAPI) V. Avery; format: cell-based; conditions: Plasmodium falciparum
[6] = tested on: P. falciparum FCR3; assay: FCR3 SYBR Green I assay Horii; format: cell-based; conditions: Plasmodium falciparum, FCR3, 72 h; read-out: P. falciparum FCR3 asexual blood stage IC50 Horii
Description: Column T: Horii group (data presented first in this paper). IC50 against asexual blood stage P. falciparum FCR3. Methods: For measurement of anti-Plasmodium activities, P. falciparum FCR3 strain was cultured in the RPMI 1640 medium supplemented with 10% human type A serum from in-house volunteers at 37°C, 5% O2 and 5% CO2 (0.5% parasitemia and 2% hematocrit) for 72 h in the presence of the compounds (DMSO final concentration, 0.25%). The growth inhibition of P. falciparum was determined using a SYBR Green I assay. Lysis buffer (20 mM Tris (pH 7.5), 5 mM EDTA, 0.008% (w/v) saponin and 0.08% (v/v) Triton X-100) containing SYBR Green I was added to each well and incubated at room temperature and dark condition for 1-5 hours. After the incubation, amounts of parasite DNA were measured as fluorescence at 485 nm of excitation and 530 nm of emission. An unpublished antimalarial compound was used as positive control in the assay.

[7] = tested on: P. falciparum 3D7, HB3, Dd2, W2, K1, FCR3; assay: Asexual EC50 image assay, six strains, Ayong; format: cell-based; conditions: Plasmodium falciparum
[8] = tested on: P. falciparum HB3; assay: Stage-specificity / mitochondrial integrity image assay Ayong; format: cell-based; conditions: 10µM
[9] = tested on: P. falciparum NF54Pfs16 gametocytes stage I-III; conditions: ref [61]; read-out: gametocyte early stage (I-III) luciferase EC50; cited from earlier work
[10] = tested on: P. falciparum NF54Pfs16 gametocytes stage IV-V; conditions: ref [62]; read-out: gametocyte late stage (IV-V) luciferase EC50; cited from earlier work
[11] = tested on: P. falciparum NF54 GFP-Pfs16 gametocytes stage I-III; conditions: ref [64]; read-out: gametocyte early stage (I-III) GFP-MTR EC50; cited from earlier work
[12] = tested on: P. falciparum NF54 GFP-Pfs16 gametocytes stage IV-V; conditions: ref [64]; read-out: gametocyte late stage (IV-V) GFP-MTR EC50; cited from earlier work
[13] = metabolite level change after treatment

CSc1ccccc1C(=O)Nc1nc(-c2ccccn2)cs1 [MMV001246]
zone of inhibition at 1000 µM [1]: 3 mm
Acetyllysine ([2]; S2 Table Metabolomics, metabolite Acetyllysine): 0.4532
N-acetyl-L-ornithine ([2]; S2 Table Metabolomics, metabolite N-acetyl-L-ornithine): 0.4087
N-carbamoyl-L-aspartate ([2]; S2 Table Metabolomics, metabolite N-carbamoyl-L-aspartate): 0.8167
NADPH ([2]; S2 Table Metabolomics, metabolite NADPH): -0.6152
dAMP ([2]; S2 Table Metabolomics, metabolite dAMP): 0.5623
dCMP ([2]; S2 Table Metabolomics, metabolite dCMP): 1.316
dTDP ([2]; S2 Table Metabolomics, metabolite dTDP): 1.003
dTMP ([2]; S2 Table Metabolomics, metabolite dTMP): 1.155
dTTP ([2]; S2 Table Metabolomics, metabolite dTTP): 0.605
dihydroorotate ([2]; S2 Table Metabolomics, metabolite dihydroorotate): 0.8484
orotate ([2]; S2 Table Metabolomics, metabolite orotate): -0.04882
DLH ([2]; S2 Table Metabolomics, peptide DLH): -0.1638
DLS/SDL/SID ([2]; S2 Table Metabolomics, peptide DLS/SDL/SID): -0.1191
PD ([2]; S2 Table Metabolomics, peptide PD): 1.085
PEE ([2]; S2 Table Metabolomics, peptide PEE): 0.2734
PVNF ([2]; S2 Table Metabolomics, peptide PVNF): -0.2587
3-phosphoglycerate ([2]; metabolite 3-phosphoglycerate, S2 Table Metabolomics): -0.3067
ADP-D-glucose ([2]; metabolite ADP-D-glucose, S2 Table Metabolomics): 0.2637
ATP ([2]; metabolite ATP, S2 Table Metabolomics): -0.316
CDP ([2]; metabolite CDP, S2 Table Metabolomics, change in metabolite level after compound treatment): 1.161
D-sedoheptulose-1/7-phosphate ([2]; metabolite D-sedoheptulose-1/7-phosphate, S2 Table Metabolomics, change in metabolite level after compound treatment): 0.9582
FAD ([2]; metabolite FAD, S2 Table Metabolomics): -0.06449
GMP ([2]; metabolite GMP, S2 Table Metabolomics, change in metabolite level after compound treatment): -0.2602
NAD+ ([2]; metabolite NAD+, S2 Table Metabolomics): 0.05063
NADP+ ([2]; metabolite NADP+, S2 Table Metabolomics): 0.1259
Octoluse Bisphosphate ([2]; metabolite Octoluse Bisphosphate, S2 Table Metabolomics, change in metabolite level after compound treatment): -0.02993
Pyroglutamic acid ([2]; metabolite Pyroglutamic acid, S2 Table Metabolomics): -0.6363
UDP-D-glucose ([2]; metabolite UDP-D-glucose, S2 Table Metabolomics): 0.1597
UDP-D-glucuronate ([2]; metabolite UDP-D-glucuronate, S2 Table Metabolomics): 0.09079
UDP-N-acetyl-glucosamine ([2]; metabolite UDP-N-acetyl-glucosamine, S2 Table Metabolomics): 0.2113
UDP ([2]; metabolite UDP, S2 Table Metabolomics, change in metabolite level after compound treatment): 1.27
UMP ([2]; metabolite UMP, S2 Table Metabolomics, change in metabolite level after compound treatment): -0.2249
UTP ([2]; metabolite UTP, S2 Table Metabolomics, change in metabolite level after compound treatment): 0.2071
a-ketoglutarate ([2]; metabolite a-ketoglutarate, S2 Table Metabolomics): -0.3343
citrate/isocitrate ([2]; metabolite citrate/isocitrate, S2 Table Metabolomics, change in metabolite level after compound treatment): 0.6139
cytidine ([2]; metabolite cytidine, S2 Table Metabolomics): -0.1132
dATP ([2]; metabolite dATP, S2 Table Metabolomics): -0.2342
dGMP/AMP ([2]; metabolite dGMP/AMP, S2 Table Metabolomics, change in metabolite level after compound treatment): 0.5523
fumarate ([2]; metabolite fumarate, S2 Table Metabolomics, change in metabolite level after compound treatment): 0.07419
glucose-1/6-phosphate ([2]; metabolite glucose-1/6-phosphate, S2 Table Metabolomics, change in metabolite level after compound treatment): 0.3611
glycerate ([2]; metabolite glycerate, S2 Table Metabolomics, change in metabolite level after compound treatment): -0.4138
guanine ([2]; metabolite guanine, S2 Table Metabolomics, change in metabolite level after compound treatment): 0.2842
guanosine ([2]; metabolite guanosine, S2 Table Metabolomics, change in metabolite level after compound treatment): 0.03562
hypoxanthine ([2]; metabolite hypoxanthine, S2 Table Metabolomics): -0.2148
indole ([2]; metabolite indole, S2 Table Metabolomics): -0.09781
inosine ([2]; metabolite inosine, S2 Table Metabolomics, change in metabolite level after compound treatment): -0.005486
2_3-Diphosphoglyceric acid [2, 13]: 0.509
4-phosphopantothenate [2, 13]: 0.08862
6-phospho-D-gluconate [2, 13]: 0.2643
FMN [2, 13]: 0.1616
IMP [2, 13]: 0.3566
Pyrophosphate [2, 13]: 0.4487
Sedoheptoluse bisphosphate [2, 13]: -0.09548
cyclic-AMP [2, 13]: -0.2042
glutathione disulfide [2, 13]: 0.1188
lactate [2, 13]: -0.259
myo-inositol [2, 13]: -0.2589
nicotinate ([2]; metabolite nicotinate, S2 Table Metabolomics): -0.09283
ornithine ([2]; metabolite ornithine, S2 Table Metabolomics): 0.2998
phosphoenolpyruvate ([2]; metabolite phosphoenolpyruvate, S2 Table Metabolomics): -0.3081
pyruvate ([2]; metabolite pyruvate, S2 Table Metabolomics, change in metabolite level after compound treatment): -0.1972
ribose-phosphate ([2]; metabolite ribose-phosphate, S2 Table Metabolomics): -0.4595
sarcosine/alanine ([2]; metabolite sarcosine/alanine, S2 Table Metabolomics, change in metabolite level after compound treatment): 0.1583
sn-glycerol-3-phosphate ([2]; metabolite sn-glycerol-3-phosphate, S2 Table Metabolomics): -0.08199
succinate/methylmalonic acid ([2]; metabolite succinate/methylmalonic acid, S2 Table Metabolomics, change in metabolite level after compound treatment): 0.009107
uridine ([2]; metabolite uridine, S2 Table Metabolomics, change in metabolite level after compound treatment): 0.08525
xanthosine ([2]; metabolite xanthosine, S2 Table Metabolomics, change in metabolite level after compound treatment): -0.2265
EC50 [3]: 206 nM
PPI inhibitors of Atg8-Atg3 interaction [4]: PPI inhibitors

C[C@@H]1CC[C@H]2[C@@H](C)C(=O)O[C@@H]3O[C@@]4(C)CC[C@@H]1[C@]32OO4 [Artemisinin, reference compound]
EC50 ([5]; read-out: P. falciparum 3D7 asexual blood stage EC50 (Image) V. Avery): 1 nM
EC50 ([5]; read-out: P. falciparum K1 asexual blood stage EC50 (Image) V. Avery): 1 nM
IC50 [6]: 47 nM
EC50 ([7]; read-out: P. falciparum 3D7 asexual blood stage EC50 (Image) Ayong): 11.7 ± 1.4 nM
EC50 ([7]; read-out: P. falciparum Dd2 asexual blood stage EC50 (Image) Ayong): 5.3 ± 1.2 nM
EC50 ([7]; read-out: P. falciparum FCR3 asexual blood stage EC50 (Image) Ayong): 5 ± 0.4 nM
EC50 ([7]; read-out: P. falciparum HB3 asexual blood stage EC50 (Image) Ayong): 8.6 ± 1.2 nM
EC50 ([7]; read-out: P. falciparum K1 asexual blood stage EC50 (Image) Ayong): 3.5 ± 0.4 nM
EC50 ([7]; read-out: P. falciparum W2 asexual blood stage EC50 (Image) Ayong): 5.7 ± 0.5 nM
Effects on asexual life cycle progression (treatment at ER, LR, T, S; merozoites; mitochondrial integrity) [8]: LR-X-S-X-o-o
EC50 [9]: 13 nM
EC50 [10]: 26 nM
EC50 [11]: 1 nM
EC50 [12]: 5 nM
